For seven compounds, Activity results are on record in ChEMBL document CHEMBL1141366, “Isolation of quinic acid derivatives and flavonoids from the aerial parts of Lactuca indica L. and their hepatoprotective activity in vitro” (Bioorg Med Chem Lett, 2007).

Activity calls are given as the source filed them. The rule behind the calls is not given here.

For assay [1], the system named is Hepatitis B virus. Briefly: Hepatoprotective activity against HBV in human HepG2.2.15 cells. It is filed as functional, organism-based. The conditions noted are these: HepG2 2.2.15.
Assay [2] deals with Hepatitis B virus. In words: Antiviral activity against hepatitis B virus assessed as inhibition of viral particle production. It is filed as functional, organism-based.

Consider `O=C(/C=C/c1ccc(O)c(O)c1)O[C@@H]1C[C@@](O)(C(=O)O)C[C@@H](O)[C@@H]1O`, for which the result in the assay with Hepatitis B virus [1] and in the assay on Hepatitis B virus [2] was Active.
`O=C(/C=C/c1ccc(O)c(O)c1)O[C@@H]1[C@H](O)C[C@@](O)(C(=O)O)C[C@H]1OC(=O)/C=C/c1ccc(O)c(O)c1`: the result in the assay on Hepatitis B virus [1] and in the assay with Hepatitis B virus [2] was Active.
In the case of `O=C(/C=C/c1ccc(O)c(O)c1)O[C@H]1[C@H](O)C[C@](O)(C(=O)O)C[C@H]1OC(=O)/C=C/c1ccc(O)c(O)c1`, the result in the assay on Hepatitis B virus [1] and with Hepatitis B virus [2] was Active.
For `O=c1c(O[C@@H]2O[C@H](CO)[C@@H](O)[C@H](O)[C@H]2O)c(-c2ccc(O)c(O)c2)oc2cc(O)cc(O)c12`, the result in the assay on Hepatitis B virus [1] and in the assay with Hepatitis B virus [2] was Active.
Turning to `O=C(/C=C/c1ccc(O)c(O)c1)O[C@@H]1C[C@](O)(C(=O)O)C[C@@H](O)[C@H]1O`, the outcome with Hepatitis B virus [1] and in the assay on Hepatitis B virus [2] was Active.
On to `O=C(/C=C/c1ccc(O)c(O)c1)O[C@@H]1C[C@](O)(C(=O)O)C[C@@H](OC(=O)/C=C/c2ccc(O)c(O)c2)[C@H]1O`, for which the result with Hepatitis B virus [1] and in the assay with Hepatitis B virus [2] was Active.
For `O=C(/C=C/c1ccc(O)cc1)O[C@@H]1C[C@](O)(C(=O)O)C[C@@H](O)[C@H]1O`, the result in the assay with Hepatitis B virus [1] and in the assay on Hepatitis B virus [2] was Active.
